Source: patent publication US9980943B2, “Methods of treating muscular dystrophy” (BOARD OF REGENTS OF THE NEVADA SYSTEM OF HIGHER EDUCATION, …, priority 2013, dated 2018)

Experiments:
Assay type in all cases: cell-based, mouse
[1] = system: α7 integrin (LacZ reporter in α7+/LacZ myotubes); experiment: Myotube α7 integrin FDG assay (Burkin assay in myotubes, 96-well)
[2] = system: α7 integrin (LacZ reporter in α7βgal+/− myoblasts); experiment: Myoblast α7+/LacZ integrin FDG assay (Burkin assay in myoblasts, 96-well); conditions: for Burkin Assay in Myoblasts, signal relative to DMSO / Burkin Assay in Myoblasts, value relative to DMSO: α7+/LacZ myoblasts, 96-well
[3] = system: β-galactosidase in CMV-LacZ C2C12 myotubes; experiment: CMV-LacZ secondary screen in C2C12 myotubes (β-Gal stabilizing assay); conditions: for CMV-LACZ in Myotubes (β-galactosidase activity relative to DMSO): CMV-LacZ C2C12 myotubes, 96-well format
In short: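 Stable CMV-LacZ C2C12 clone; six-point curve 0.5–40 μM; duplicates.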

[4] = Mus musculus, Myotube, read-out: Burkin Assay in Myotubes, α7 integrin LacZ reporter signal relative to DMSO
[5] = Mus musculus, Myoblast, 48 h, read-out: Burkin Assay in Myoblasts, signal relative to DMSO
[6] = 5 uM, C2C12 CMV-LacZ myotubes, fold relative to DMSO
[7] = 10 uM, C2C12 CMV-LacZ myotubes, fold relative to DMSO
[8] = 20 uM, C2C12 CMV-LacZ myotubes, fold relative to DMSO
[9] = 40 uM, C2C12 CMV-LacZ myotubes, fold relative to DMSO

Cc1nc2c([nH]1)OC(N)=C(C#N)C21CCN(Cc2ccccc2)CC1 [MLS000047918-01]
fold induction at 0.5 µM [1, 4]: 1.4 | fold induction at 1 µM [1, 4]: 0.913 | fold induction at 5 µM [1, 4]: 0.899 | fold induction at 10 µM [1, 4]: 0.872 | fold induction at 20 µM [1, 4]: 0.967 | fold induction at 40 µM [1, 4]: 0.945 | fold induction at 0.5 µM [2, 5]: 0.873 | fold induction at 1 µM [2, 5]: 0.912 | fold induction at 5 µM [2, 5]: 0.948 | fold induction at 10 µM [2, 5]: 1 | fold induction at 20 µM [2, 5]: 0.803 | fold induction at 40 µM [2, 5]: 0.78 | fold induction at 5 µM ([3]; Mus musculus, C2C12, read-out: CMV-LACZ in Myotubes, signal relative to DMSO, 5 uM, C2C12 CMV-LacZ myotubes, fold relative to DMSO): 0.937 | fold induction at 10 µM ([3]; Mus musculus, C2C12, read-out: CMV-LACZ in Myotubes, signal relative to DMSO, 10 uM, C2C12 CMV-LacZ myotubes, fold relative to DMSO): 0.8 | fold induction at 20 µM ([3]; Mus musculus, C2C12, read-out: CMV-LACZ in Myotubes, signal relative to DMSO, 20 uM, C2C12 CMV-LacZ myotubes, fold relative to DMSO): 1.04 | fold induction at 40 µM ([3]; Mus musculus, C2C12, read-out: CMV-LACZ in Myotubes, signal relative to DMSO, 40 uM, C2C12 CMV-LacZ myotubes, fold relative to DMSO): 1.05

Cc1cc2ccccc2n2c(SCC(=O)NCc3cccs3)nnc12 [MLS000526364-01]
Burkin Assay in Myotubes, α7 integrin LacZ reporter signal relative to DMSO ([1]; 0.5 uM): 0.9648 | Burkin Assay in Myotubes, α7 integrin LacZ reporter signal relative to DMSO ([1]; 1 uM): 0.8953 | Burkin Assay in Myotubes, α7 integrin LacZ reporter signal relative to DMSO ([1]; 5 uM): 1.033 | Burkin Assay in Myotubes, α7 integrin LacZ reporter signal relative to DMSO ([1]; 10 uM): 0.8908 | Burkin Assay in Myotubes, α7 integrin LacZ reporter signal relative to DMSO ([1]; 20 uM): 1.358 | Burkin Assay in Myotubes, α7 integrin LacZ reporter signal relative to DMSO ([1]; 40 uM): 0.9162 | Burkin Assay in Myoblasts, signal relative to DMSO ([2]; 0.5 uM): 0.9747 | Burkin Assay in Myoblasts, signal relative to DMSO ([2]; 1 uM): 0.9502 | Burkin Assay in Myoblasts, signal relative to DMSO ([2]; 5 uM): 1.045 | Burkin Assay in Myoblasts, signal relative to DMSO ([2]; 10 uM): 1.085 | Burkin Assay in Myoblasts, signal relative to DMSO ([2]; 20 uM): 1.114 | Burkin Assay in Myoblasts, signal relative to DMSO ([2]; 40 uM): 1.029 | CMV-LACZ in Myotubes, signal relative to DMSO [3, 6]: 0.9507 | CMV-LACZ in Myotubes, signal relative to DMSO [3, 7]: 0.953 | CMV-LACZ in Myotubes, signal relative to DMSO [3, 8]: 1.1735 | CMV-LACZ in Myotubes, signal relative to DMSO [3, 9]: 1.1865

CCCCNS(=O)(=O)c1ccc2nc(-c3cccnc3)cc(C(=O)NCCOC)c2c1 [MLS000673766-01]
Burkin Assay in Myotubes (signal relative to DMSO) ([1]; 0.5 uM): 0.968 | Burkin Assay in Myotubes (signal relative to DMSO) ([1]; 1 uM): 0.9862 | Burkin Assay in Myotubes (signal relative to DMSO) ([1]; 5 uM): 0.896 | Burkin Assay in Myotubes (signal relative to DMSO) ([1]; 10 uM): 0.9276 | Burkin Assay in Myotubes (signal relative to DMSO) ([1]; 20 uM): 0.8272 | Burkin Assay in Myotubes (signal relative to DMSO) ([1]; 40 uM): 0.8717 | Burkin Assay in Myoblasts, value relative to DMSO ([2]; 0.5 uM): 1.02 | Burkin Assay in Myoblasts, value relative to DMSO ([2]; 1 uM): 1.061 | Burkin Assay in Myoblasts, value relative to DMSO ([2]; 5 uM): 0.928 | Burkin Assay in Myoblasts, value relative to DMSO ([2]; 10 uM): 1.0253 | Burkin Assay in Myoblasts, value relative to DMSO ([2]; 20 uM): 0.91 | Burkin Assay in Myoblasts, value relative to DMSO ([2]; 40 uM): 0.9919 | CMV-LACZ in Myotubes, signal relative to DMSO [3, 6]: 0.9847 | CMV-LACZ in Myotubes, signal relative to DMSO [3, 7]: 0.9632 | CMV-LACZ in Myotubes, signal relative to DMSO [3, 8]: 1.11 | CMV-LACZ in Myotubes, signal relative to DMSO [3, 9]: 1.04

O=C(NC1CCCC1)c1ccc(CS(=O)(=O)Cc2ccccc2F)o1 [MLS001030746-01]
Burkin Assay in Myotubes (signal relative to DMSO) ([1]; 0.5 uM): 1.047 | Burkin Assay in Myotubes (signal relative to DMSO) ([1]; 1 uM): 0.9692 | Burkin Assay in Myotubes (signal relative to DMSO) ([1]; 5 uM): 1.031 | Burkin Assay in Myotubes (signal relative to DMSO) ([1]; 10 uM): 0.9496 | Burkin Assay in Myotubes (signal relative to DMSO) ([1]; 20 uM): 0.9886 | Burkin Assay in Myotubes (signal relative to DMSO) ([1]; 40 uM): 1.067 | Burkin Assay in Myoblasts, value relative to DMSO ([2]; 0.5 uM): 0.9195 | Burkin Assay in Myoblasts, value relative to DMSO ([2]; 1 uM): 0.8373 | Burkin Assay in Myoblasts, value relative to DMSO ([2]; 5 uM): 1.069 | Burkin Assay in Myoblasts, value relative to DMSO ([2]; 10 uM): 1.073 | Burkin Assay in Myoblasts, value relative to DMSO ([2]; 20 uM): 0.9338 | Burkin Assay in Myoblasts, value relative to DMSO ([2]; 40 uM): 0.9637 | CMV-LACZ in Myotubes (β-galactosidase activity relative to DMSO) ([3]; 5 uM): 0.9791 | CMV-LACZ in Myotubes (β-galactosidase activity relative to DMSO) ([3]; 10 uM): 0.8757 | CMV-LACZ in Myotubes (β-galactosidase activity relative to DMSO) ([3]; 20 uM): 1.098 | CMV-LACZ in Myotubes (β-galactosidase activity relative to DMSO) ([3]; 40 uM): 0.9912
